According to paper PMC11374718, “Unlocking opioid neuropeptide dynamics with genetically encoded biosensors” (Nature Neuroscience, 2024):

Experiments:
κLight1.3a [1] = test: in vivo BLA terminal ChRimson stimulation-evoked κLight1.3a activity in NAcSh after drug pretreatment; set-up: species or system mouse; conditions: aticaprant 3 mg per kg i.p. pretreatment; normalized to vehicle; 0–20 s; n = 4
κLight1.3a [2] = test: in vivo fiber photometry of κLight1.3a in NAcSh, agonist/antagonist drug injection; set-up: species or system mouse; conditions: κOR-Cre mice NAcSh; aticaprant 3 mg per kg + U50,488 10 mg per kg i.p.; 0–50 min; n = 6
Procedure: To detect dynorphin signaling at κOR-expressing neurons, we injected κOR-Cre mice with AAV5-CAG-DIO-κLight1.3a and implanted optical fibers in the NAcSh. A subset of mice was also injected with the red-shifted opsin ChRimson (AAV5-DIO-EF1a-ChRimson-tdTomato) in the BLA (Fig. 5a–c and Extended Data Fig. 5a); ChRimson-lacking mice served as a negative control to determine if optical stimulation produced artifactual dynamics in κLight1.3a fluorescence. We first examined the response of κLight1.3a to the agonist U50,488 in these mice (Fig. 5d).
Mice were pretreated with either vehicle (17:1:1:1 ratio of saline:dimethylsulfoxide:corn oil:ethanol) or aticaprant (Eli Lilly) at 3 mg per kg body weight […] i.p. for 30 min. […]
Custom MATLAB scripts were developed for analyzing fiber photometry data in the context of mouse behavior. […] After baseline correction, the photometry trace was z-scored relative to the mean and standard deviation of the session. The post-processed fiber photometry signal was analyzed in the context of animal behavior during Pavlovian conditioning and operant task performance. […] Peak, mean and minimum fluorescence was determined during predetermined time windows for the injection period (0–5 min), reward period (5–20 s), release period (0–20 s) or artifact period (0–20 s) subtracted from peak, mean or minimum fluorescence values in a baseline window (−5 to 0 s). […]

Structure (SMILES): Cc1cc(C)cc([C@@H]2CCCN2Cc2ccc(Oc3ccc(C(N)=O)cc3F)cc2)c1 [aticaprant]
- Normalized peak fluorescence of κLight1.3a, ChRimson stimulation-evoked trials (κLight1.3a [1]): 0.63 ± 0.14
- Normalized peak fluorescence of κLight1.3a during injection period (κLight1.3a [2]): 0.29 ± 0.07
